Data published in patent US20180360917A1, “SINCALIDE FORMULATIONS AND METHODS OF USE” (Apicore LLC, priority 2017, published 2018).

Assays:
[1] = Stability of Sincalide in 35 mM phosphate buffer over pH 3.0-9.1 (recovery by RP-HPLC); type: physicochemical
Experimental: Experiments were conducted to determine the effect of pH on the chemical stability of Sincalide. Chemical instability, or degradation, may be caused by, for example, oxidation, reduction, de-amidation, hydrolysis, imide formation, racemization, isomerization, and/or β-elimination. To examine the effect of pH on Sincalide in phosphate buffer solution, solutions of Sincalide (˜1.7, μg/mL) were prepared in 35 mM phosphate buffer and pH-adjusted with either dilute HCl or NaOH for final pH values ranging from 3.0-9.1. Using reverse-phase HPLC (RP-HPLC) with gradient elution and UV detection at 215 nm, Sincalide stability in solution was assessed by measuring the recovery of Sincalide at 0, 6, and 24 hours after pH adjustment.
A 24-hour study on the stability of Sincalide in phosphate buffer over the pH range of 3.0-9.1 was conducted. By measure of the percentage recovery, Sincalide was stable in 35 mM phosphate buffer solution at pH values ranging from 5.0-9.1 over a 24-hour period. At pH values <5.0, Sincalide degradation was evident even at the initial time point.

[2] = Oxidation of Sincalide methionine residues by trace metals with and without EDTA; type: physicochemical
Description: Excipient impurities and/or stopper extractables can introduce trace metals into pharmaceutical formulations. Embodiments of the Sincalide formulations disclosed herein contain stabilizerichelator to inhibit the oxidation of the two methionine residues present in Sincalide (Met 3 and Met 6). Preferred chelators include edetic acid (EDTA) and derivatives thereof, including salts. […] In particular, copper and manganese, in the absence of EDTA, have the greatest oxidative effect on the methionine residues of Sincalide.

gallbladder = details: typical, patient pretreated before hepatobiliary imaging; cited from earlier work

pH values at which Sincalide was stable, by percentage recovery ([1]; 35 mM phosphate buffer solution, over a 24-hour period, RP-HPLC UV 215 nm): 5.0-9.1
pH values at which Sincalide degradation was evident ([1]; 35 mM phosphate buffer, even at the initial time point): < 5.0
formation of Sincalide Met 3 and Met 6 mono sulfoxides ([2]; presence of EDTA): inhibitory effect
amounts of the degradants Sincalide Met 3 and Met 6 mono sulfoxides ([2]; presence of certain metals, absence of EDTA, copper and manganese greatest oxidative effect): increase
SMILES: CSCC[C@H](NC(=O)[C@H](Cc1ccc(OS(=O)(=O)O)cc1)NC(=O)[C@@H](N)CC(=O)O)C(=O)NCC(=O)N[C@@H](Cc1c[nH]c2ccccc12)C(=O)N[C@@H](CCSC)C(=O)N[C@@H](CC(=O)O)C(=O)N[C@@H](Cc1ccccc1)C(N)=O [Sincalide, 1-De(5-oxo-L-glutamine-5-L-proline)-2-de-L-me-thioninecaerulein]
time to gallbladder contraction after injection (gallbladder): ≤ 15 min
